Assay results from patent US6887890B2, “Compounds exhibiting thrombopoietin-like activities” (Chugai Seiyaku Kabushiki Kaisha, priority 2000, dated 2005).

Test system: Mpl-expressing Ba/F3 cell line (human mpl gene)
Test: Measurement of thrombopoietin (TPO) activity: viable cell count of Mpl-expressing Ba/F3 cell line (Cell Count Reagent SF, absorbance 450 nm)
Type: cell-based
Settings: for Concentration: concentration corresponding to the maximum TPO activity value; for TPO activity: maximum TPO activity value, ODt/ODs×100 relative to maximum reaction of human TPO, Mpl-expressing Ba/F3 cells cultured at 37° C. for one day, at the concentration given
Description: The TPO activities of the compounds of the invention obtained in the aforementioned examples were measured by the procedure described below, for evaluation of their thrombopoietic effects.
Establishment of Mpl-expressing Ba/F3 Cell Line
The human mpl gene was cloned from cDNAs of the human erythroleukemia cell line HEL by PCR, and was incorporated into pCOS1 to construct an expression vector. The expression vector was transfected into Ba/F3 cells by electroporation method, and an Mpl-expressing Ba/F3 clone was established.
Measurement of Thrombopoietin (TPO) Activity
The cytokine-eliminated Mpl-expressing Ba/F3 line was plated in a 96-well plate at 25,000 cells/well. DMSO solutions containing the compounds obtained in each of the examples were then prepared to different specified concentration ranges, and each solution was added to the Mpl-expressing Ba/F3 cell line (final DMSO concentration: ≦0.1%), and the cell were cultured at 37° C. for one day. Human TPO (by R&D Systems or Genzyme) was used as a positive control.
Each of the cultured Mpl-expressing Ba/F3 cell lines was subjected to absorbance measurement at a wavelength of 450 nm (reference wavelength: 620 nm), corresponding to the viable cell count, using Cell Count Reagent SF (by Nacalai Tesque Inc.). The TPO activity of each compound for the Mpl-expressing Ba/F3 cell line was determined based on the following formula. TPO activity (%)=ODt/ODs×100
ODs: Absorbance at maximum reaction of human TPO (wavelength: 450-620 nm).
ODt: Absorbance of test solution (wavelength: 450-620 nm).
Tables 1 and 2 show the maximum TPO activity values and the corresponding concentrations of each compound, as obtained by the test described above.

NCCCC[C@H](NC(=O)c1cccc2cc(O)ccc12)C(=O)Nc1ccc(C(c2ccc(NC(=O)[C@H](CCCCN)NC(=O)c3cccc4cc(O)ccc34)cc2)c2ccc(NC(=O)[C@H](CCCCN)NC(=O)c3cccc4cc(O)ccc34)cc2)cc1.O=C(O)C(F)(F)F [Example 200, tris[4-[N-α-(6-hydroxynaphthalen-1-yl)carbonyl-L-lysyl]aminophenyl]methane trifluoroacetate]
Concentration: 25 µM
TPO activity: 144%

NCCCC[C@@H](NC(=O)Cc1c[nH]c2ccccc12)C(=O)Nc1ccc(N(c2ccc(NC(=O)[C@@H](CCCCN)NC(=O)Cc3c[nH]c4ccccc34)cc2)c2ccc(NC(=O)[C@@H](CCCCN)NC(=O)Cc3c[nH]c4ccccc34)cc2)cc1.O=C(O)C(F)(F)F [Example 201, tris[4-[N-α-[2-(1H-indol-3-yl)acetyl]-D-lysyl]aminophenyl]amine trifluoroacetate]
Concentration: 25 µM
TPO activity: 110%
